According to the NIST ThermoML archive (doi:10.1016/j.jct.2018.01.005):
± gives the expanded uncertainty stated by the source.

Key:
[1] = excess molar enthalpy (molar enthalpy of mixing); xn = mol fraction of the nth substance listed; details: 100 kPa, Liquid, Flow calorimetry
[2] = 101.33 kPa, Liquid, Vibrating tube method

CC1(C)C(=O)[C@]2(C)CC[C@H]1C2 [(-)-fenchone] + CCCCO
excess molar enthalpy [kJ/mol], [1]
Details | 283.15 K | 298.15 K | 313.15 K | 328.15 K
x1 = 0.05 | 0.213 ± 0.008 | 0.238 ± 0.009 | 0.255 ± 0.009 | 0.266 ± 0.01
x1 = 0.1 | 0.404 ± 0.013 | 0.455 ± 0.015 | 0.489 ± 0.016 | 0.51 ± 0.016
x1 = 0.203 | 0.731 ± 0.023 | 0.813 ± 0.025 | 0.87 ± 0.027 | 0.907 ± 0.028
x1 = 0.3 | 0.929 ± 0.029 | 1.04 ± 0.032 | 1.12 ± 0.035 | 1.18 ± 0.037
x1 = 0.396 | 1.06 ± 0.033 | 1.21 ± 0.037 | 1.31 ± 0.041 | 1.37 ± 0.043
x1 = 0.499 | 1.12 ± 0.035 | 1.28 ± 0.04 | 1.39 ± 0.043 | 1.46 ± 0.045
x1 = 0.603 | 1.09 ± 0.034 | 1.25 ± 0.039 | 1.36 ± 0.042 | 1.43 ± 0.044
x1 = 0.692 | 0.99 ± 0.031 | 1.13 ± 0.035 | 1.22 ± 0.038 | 1.28 ± 0.04
x1 = 0.805 | 0.768 ± 0.024 | 0.869 ± 0.027 | 0.929 ± 0.029 | 0.962 ± 0.03
x1 = 0.898 | 0.441 ± 0.014 | 0.51 ± 0.016 | 0.553 ± 0.018 | 0.573 ± 0.018
x1 = 0.95 | 0.225 ± 0.008 | 0.258 ± 0.01 | 0.278 ± 0.01 | 0.287 ± 0.011

CC1(C)C(=O)[C@]2(C)CC[C@H]1C2 [(-)-fenchone] + CCCCCO
excess molar enthalpy [kJ/mol], [1]
Details | 283.15 K | 298.15 K | 313.15 K | 328.15 K
x1 = 0.049 | 0.212 ± 0.008 | 0.234 ± 0.009 | 0.246 ± 0.009 | 0.254 ± 0.009
x1 = 0.099 | 0.404 ± 0.013 | 0.451 ± 0.015 | 0.482 ± 0.016 | 0.492 ± 0.016
x1 = 0.199 | 0.747 ± 0.023 | 0.823 ± 0.026 | 0.868 ± 0.027 | 0.889 ± 0.028
x1 = 0.3 | 0.966 ± 0.03 | 1.08 ± 0.034 | 1.16 ± 0.036 | 1.19 ± 0.037
x1 = 0.397 | 1.11 ± 0.034 | 1.25 ± 0.039 | 1.34 ± 0.042 | 1.38 ± 0.043
x1 = 0.498 | 1.15 ± 0.036 | 1.31 ± 0.041 | 1.41 ± 0.044 | 1.46 ± 0.045
x1 = 0.596 | 1.12 ± 0.035 | 1.28 ± 0.04 | 1.38 ± 0.043 | 1.43 ± 0.044
x1 = 0.702 | 1.01 ± 0.031 | 1.15 ± 0.036 | 1.23 ± 0.038 | 1.27 ± 0.039
x1 = 0.803 | 0.804 ± 0.025 | 0.902 ± 0.028 | 0.959 ± 0.03 | 0.987 ± 0.031
x1 = 0.898 | 0.456 ± 0.015 | 0.522 ± 0.017 | 0.563 ± 0.018 | 0.583 ± 0.019
x1 = 0.949 | 0.24 ± 0.009 | 0.27 ± 0.01 | 0.29 ± 0.011 | 0.301 ± 0.011

CCCCO [butan-1-ol]
[2]
Details | mass density [kg/m3]
283.15 K | 817.11 ± 0.41
298.15 K | 805.72 ± 0.41
313.15 K | 794.4 ± 0.41
328.15 K | 782.11 ± 0.41

CCCCCO [pentan-1-ol]
[2]
Details | mass density [kg/m3]
283.15 K | 821.79 ± 0.42
298.15 K | 810.9 ± 0.42
313.15 K | 799.8 ± 0.42
328.15 K | 788.82 ± 0.42
